These are literature values, as cited in US10517855B1, “Interleukins activity inhibiting composition” (priority 2019, dated 2019).

The test system of one data set is avian malaria. The conditions noted are these: in vivo.
For data set [1] the following is noted: preclinical studies.
Data set [2] has as its system apomorphine-induced stereotypy. The conditions noted are these: preclinical studies.
Data set [3] concerns MK-801-induced hyperlocomotion, working memory deficit and social withdrawal. As to conditions: preclinical studies.
In data set [4] the test system is haloperidol-induced catalepsy. As to conditions: preclinical studies.
The subject of data set [5] is amphetamine-induced lethality and stereotypy. As to conditions: preclinical studies.

As for `C/C=C1/CN2CC[C@@]34c5cc(O)ccc5N(C)[C@]35OC[C@@]4(C(=O)OC)[C@H]1C[C@H]25` [akuammine], in the data set with avian malaria, the “activity against avian malaria” value was “inactive”.
Consider `COC(=O)C1=CO[C@@H](C)[C@@H]2Cn3ccc4c5ccccc5nc-4c3C[C@H]12` [Alstonine], for which the anxiolytic-like effects entry in data set [1] is reported as “possesses anxiolytic-like effects”. Besides, the apomorphine-induced stereotypy result in data set [2] is on record as “attenuates”. For the same molecule, in data set [3], the MK-801-induced hyperlocomotion result was “attenuates”, the MK-801-induced social withdrawal entry is “attenuates” and the “MK-801-induced working memory deficit” value is “attenuates”. In data set [4], the haloperidol-induced catalepsy entry was “attenuates”. In data set [5], the amphetamine-induced lethality entry is “attenuates” and the amphetamine-induced stereotypy entry was “attenuates”.
